IC50 data for five compounds are collected here from patent US20240409585A1, “MACROCYCLIC IMMUNOMODULATORS” (priority 2021, published 2024).

SMILES strings stand for the structures. Bridge positions count the residues as written; N and C are the ends. Square brackets hold non-standard residues; d marks the D form. Peptide text beside a SMILES is read from it. * marks the point of attachment. Bip(4'-COOH) = N[C@@H](Cc1ccc(-c2ccc(C(=O)O)cc2)cc1)C(=O)O; Bip(4'-NHAc) = CC(=O)Nc1ccc(-c2ccc(C[C@H](N)C(=O)O)cc2)cc1; Phe(3-CF3) = N[C@@H](Cc1cccc(C(F)(F)F)c1)C(=O)O; Ala(morpholin-4-yl) = N[C@@H](CN1CCOCC1)C(=O)O; Phe(4-CONH2) = NC(=O)c1ccc(C[C@H](N)C(=O)O)cc1; Phe(4-COOH) = N[C@@H](Cc1ccc(C(=O)O)cc1)C(=O)O; Bip = N[C@@H](Cc1ccc(-c2ccccc2)cc1)C(=O)O; Phe(3-Me) = Cc1cccc(C[C@H](N)C(=O)O)c1; Abu(3S-NH2) = C[C@H](N)[C@H](N)C(=O)O; hPhe = N[C@@H](CCc1ccccc1)C(=O)O; Cha = N[C@@H](CC1CCCCC1)C(=O)O; Carboxymethyl = O=C(O)C*; NMeA = CN[C@@H](C)C(=O)O; Orn = NCCC[C@H](N)C(=O)O; Dab = NCC[C@H](N)C(=O)O

T1 sequence (Q15116 25-288): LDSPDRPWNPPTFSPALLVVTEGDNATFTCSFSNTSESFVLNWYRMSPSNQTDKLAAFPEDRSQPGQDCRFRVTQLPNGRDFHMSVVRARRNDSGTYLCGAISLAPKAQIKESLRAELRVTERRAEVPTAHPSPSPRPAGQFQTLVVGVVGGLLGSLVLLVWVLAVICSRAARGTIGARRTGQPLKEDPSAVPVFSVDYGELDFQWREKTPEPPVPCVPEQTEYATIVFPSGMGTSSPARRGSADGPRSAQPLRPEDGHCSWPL

The first assay concerns the target T1, PE-labeled human PD-L1-Ig binding to Jurkat cell line over-expressing human PD-1 (Jurkat-PD-1) (Homo sapiens, UniProt Q15116).
T1 construct: expressed in transfected cells; host or cells: Jurkat
The assay is described as follows: Jurkat-PD-1 Cell Binding High-Content Screening Assay (CBA): Method 1. Conditions: Jurkat-PD-1 cells, PE-labeled PD-L1-Ig; μM; read-out: CBA Method 1 μM.
Regarding `CC(C)C[C@H]1NC(=O)[C@H](C)N(C)C(=O)[C@H](CCC(N)=O)NC(=O)[C@H](Cc2ccc(-c3ccccc3)cc2)NC(=O)[C@H](Cc2ccc(-c3ccc(C(=O)O)cc3)cc2)NC(=O)[C@H](Cc2cccc(C(F)(F)F)c2)NC(=O)[C@H](CC(=O)O)NC(=O)[C@H](Cc2ccc(C(=O)O)cc2)NC(=O)[C@H](CN2CCOCC2)NC(=O)CSC[C@@H](C(=O)N[C@@H](CCN)C(N)=O)NC(=O)[C@H](CCCN)NC(=O)[C@H](C(C)C)NC(=O)[C@H](CC2CCCCC2)NC(=O)[C@H](CCN)NC1=O` [Example 5058] ({CH2CO}-[Ala(morpholin-4-yl)][Phe(4-COOH)]D[Phe(3-CF3)][Bip(4'-COOH)][Bip]Q[NMeA][dL][Dab][Cha]V[Orn]C[Dab]-NH2; thioether N-14), the IC50 is 0.0032 µM.
Same read-out and setting: the figure for `CC(=O)Nc1ccc(-c2ccc(C[C@@H]3NC(=O)[C@H](Cc4cccc(C(F)(F)F)c4)NC(=O)[C@H](CC(=O)O)NC(=O)[C@H](Cc4ccc(C(=O)O)cc4)NC(=O)[C@H]([C@H](C)N)NC(=O)CSC[C@@H](C(=O)N[C@@H](CCN)C(N)=O)NC(=O)[C@H](CCC(N)=O)NC(=O)[C@H](C(C)C)NC(=O)[C@H](CC4CCCCC4)NC(=O)[C@H](CCN)NC(=O)[C@@H](CC(C)C)NC(=O)[C@H](C)N(C)C(=O)[C@H](Cc4ccc(C(N)=O)cc4)NC(=O)[C@H](Cc4ccc(-c5ccccc5)cc4)NC3=O)cc2)cc1` [Example 5073] ({CH2CO}-[Abu(3S-NH2)][Phe(4-COOH)]D[Phe(3-CF3)][Bip(4'-NHAc)][Bip][Phe(4-CONH2)][NMeA][dL][Dab][Cha]VQC[Dab]-NH2; thioether N-14) is 0.0059 µM.

The next assay deals with T2, Alexa fluor-647 labeled human PD-L1-Ig binding to Jurkat cell line over-expressing human PD-1 (Homo sapiens, UniProt Q15116).
T2 construct: expressed in transfected cells; host or cells: Jurkat
T2 sequence (Q15116 25-288): as above
As to the kind of experiment: Jurkat-PD-1 Cell Binding High-Content Screening Assay (CBA): Method 3 (Alexa fluor-647 labeled PD-L1-Ig). The settings on record: Jurkat-PD-1 cells, Alexa fluor-647 labeled PD-L1-Ig 177 nM; head μM; read-out: CBA Method 3 μM. The method, boiled down: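 Readout by high-content imaging of PFA-fixed, Hoechst-stained cells after 1 h with 177 nM (final) Alexa fluor-647 PD-L1-Ig. Compound was added first to hPD-1 Jurkat cells in RPMI plus 10% FCS for 2 h at 37 °C.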
Take `CC(=O)Nc1ccc(-c2ccc(C[C@@H]3NC(=O)[C@H](Cc4cccc(C(F)(F)F)c4)NC(=O)[C@H](CC(=O)O)NC(=O)[C@H](Cc4ccc(C(=O)O)cc4)NC(=O)[C@H](CCN)NC(=O)CSC[C@@H](C(=O)N[C@@H](CCN)C(N)=O)NC(=O)[C@H](CC(N)=O)NC(=O)[C@H](C(C)C)NC(=O)[C@H](CC4CCCCC4)NC(=O)[C@H](CCN)NC(=O)[C@@H](CC(C)C)NC(=O)[C@H](C)N(C)C(=O)[C@H](Cc4ccc(C(N)=O)cc4)NC(=O)[C@H](Cc4ccc(-c5ccccc5)cc4)NC3=O)cc2)cc1` [Example 5098] ({CH2CO}-[Dab][Phe(4-COOH)]D[Phe(3-CF3)][Bip(4'-NHAc)][Bip][Phe(4-CONH2)][NMeA][dL][Dab][Cha]VNC[Dab]-NH2; thioether N-14): the IC50 came to 0.01 µM.
For `CC(C)C[C@H]1NC(=O)[C@H](C)N(C)C(=O)[C@H](CCC(N)=O)NC(=O)[C@H](Cc2ccc(-c3ccccc3)cc2)NC(=O)[C@H](CCc2ccccc2)NC(=O)[C@H](Cc2cccc(C(F)(F)F)c2)NC(=O)[C@H](CC(=O)O)NC(=O)[C@H](CCC(N)=O)NC(=O)[C@H](CC2CCCCC2)NC(=O)CSC[C@@H](C(=O)N[C@@H](CCN)C(N)=O)NC(=O)[C@H](CCCN)NC(=O)[C@H](C(C)C)NC(=O)[C@H](CC2CCCCC2)NC(=O)[C@H](CCN)NC1=O` [Example 5246] ({CH2CO}-[Cha]QD[Phe(3-CF3)][hPhe][Bip]Q[NMeA][dL][Dab][Cha]V[Orn]C[Dab]-NH2; thioether N-14), the IC50 was 0.42 µM.
Same read-out and setting: the figure for `Cc1cccc(C[C@@H]2NC(=O)[C@H](CC(=O)O)NC(=O)[C@H](Cc3ccc(OCC(=O)O)cc3)NC(=O)[C@H](CC3CCCCC3)NC(=O)CSC[C@@H](C(=O)N[C@@H](CCN)C(N)=O)NC(=O)[C@H](CCCN)NC(=O)[C@H](C(C)C)NC(=O)[C@H](CC3CCCCC3)NC(=O)[C@H](CCN)NC(=O)[C@@H](CC(C)C)NC(=O)[C@H](C)N(C)C(=O)[C@H](CCC(N)=O)NC(=O)[C@H](Cc3ccc(-c4ccccc4)cc3)NC(=O)[C@H](Cc3ccc(C(=O)O)cc3)NC2=O)c1` [Example 5174] ({CH2CO}-[Cha]Y(Carboxymethyl)D[Phe(3-Me)][Phe(4-COOH)][Bip]Q[NMeA][dL][Dab][Cha]V[Orn]C[Dab]-NH2; thioether N-14) is 0.01 µM.

The target in another assay is T1, PE-labeled human PD-L1-Ig binding to Jurkat cell line over-expressing human PD-1 (Jurkat-PD-1). As to the kind of experiment: Jurkat-PD-1 Cell Binding High-Content Screening Assay (CBA): Method 2 (presence and absence of tween-20). The settings on record: Jurkat-PD-1 cells, PE-labeled PD-L1-Ig 20 nM; presence or absence of tween-20 not given; head μM; read-out: CBA Method 2 μM. The method, then:
Jurkat-PD-1 Cell Binding High-Content Screening Assay (CBA): Method 2
Phycoerythrin (PE) was covalently linked to the Ig epitope tag of human PD-L1-Ig and fluorescently labeled PD-L1-Ig was used for binding studies with a Jurkat cell line over-expressing human PD-1 (Jurkat-PD-1). […] 100 nl of compound was added to cells followed by incubation at 37° C. for 2 hours. To interrogate potential issues with compound aggregation, compounds were tested in the presence and absence of tween-20 detergent. […] Then, 5 μl of PE-labeled PD-L1-Ig (20 nM final), diluted in DMEM supplemented with 10% fetal calf serum. […] Data was collected and processed using a Cell Insight NXT High Content Imager and associated software.
Turning to `CC(C)C[C@H]1NC(=O)[C@H](C)N(C)C(=O)[C@H](CCC(N)=O)NC(=O)[C@H](Cc2ccc(-c3ccccc3)cc2)NC(=O)[C@H](Cc2ccc(-c3ccc(C(=O)O)cc3)cc2)NC(=O)[C@H](Cc2cccc(C(F)(F)F)c2)NC(=O)[C@H](CC(=O)O)NC(=O)[C@H](Cc2ccc(C(=O)O)cc2)NC(=O)[C@H](CN2CCOCC2)NC(=O)CSC[C@@H](C(=O)N[C@@H](CCN)C(N)=O)NC(=O)[C@H](CCCN)NC(=O)[C@H](C(C)C)NC(=O)[C@H](CC2CCCCC2)NC(=O)[C@H](CCN)NC1=O` [Example 5058] ({CH2CO}-[Ala(morpholin-4-yl)][Phe(4-COOH)]D[Phe(3-CF3)][Bip(4'-COOH)][Bip]Q[NMeA][dL][Dab][Cha]V[Orn]C[Dab]-NH2; thioether N-14), the IC50 came to 0.0024 µM.
As for `CC(=O)Nc1ccc(-c2ccc(C[C@@H]3NC(=O)[C@H](Cc4cccc(C(F)(F)F)c4)NC(=O)[C@H](CC(=O)O)NC(=O)[C@H](Cc4ccc(C(=O)O)cc4)NC(=O)[C@H]([C@H](C)N)NC(=O)CSC[C@@H](C(=O)N[C@@H](CCN)C(N)=O)NC(=O)[C@H](CCC(N)=O)NC(=O)[C@H](C(C)C)NC(=O)[C@H](CC4CCCCC4)NC(=O)[C@H](CCN)NC(=O)[C@@H](CC(C)C)NC(=O)[C@H](C)N(C)C(=O)[C@H](Cc4ccc(C(N)=O)cc4)NC(=O)[C@H](Cc4ccc(-c5ccccc5)cc4)NC3=O)cc2)cc1` [Example 5073] ({CH2CO}-[Abu(3S-NH2)][Phe(4-COOH)]D[Phe(3-CF3)][Bip(4'-NHAc)][Bip][Phe(4-CONH2)][NMeA][dL][Dab][Cha]VQC[Dab]-NH2; thioether N-14), the IC50 was 0.005 µM.
